Results as given in patent publication US11718592B2, “Oxadiazole derivative” (Sumitomo Pharma Co., Ltd., priority 2020, dated 2023).
Read-outs that look alike come from different tables or passages of the source.

Experiments:
Slc: ddy male mice = settings: mouse, in vivo, po, 1 h
Protocol: The present test is a test for evaluating whether the test compound may disturb coordinated movement or not. Rotarod is an apparatus equipped with a rotating columnar bar whose diameter is 4 cm, in which a mouse is made to walk on the rotating bar, and the coordinated movement is evaluated from the result of walking (can walk or cannot walk). Slc: ddy male mice (purchased from Japan SLC, Inc., body weight: 20-30 g) were trained 3 hours before the test starts so that they could walk on a rotarod apparatus rotating with a speed of 12 rotations per minute for 5 minutes without falling. Only the mice which can walk in the training are used in the test. The test compound was orally administered to a group consisting of 5 mice. […] To control mice, 0.5% methylcellulose solution was administered as test compound, and the same test was also done. The coordinated movement was evaluated with the average of the five mice's walking time (second).

GABA(A) receptors = assay: Evaluation of the potentiating effect on GABA(A) receptors (electrophysiology, GABA(A) receptor expressing cells); type: cell-based; settings: for The potentiating effect on GABA(A) receptors EC20: concentration giving 20% increase of the current generated by 2 μM GABA; for Inhibition rate to the increased electric current by adding flumazenil: 2 μM GABA and test compound with 10 μM flumazenil
Protocol: Using GABA(A) receptor expressing cells prepared according to Guideline for Generation of Stable Cell Lines (website of Lonza Japan; Non-patent Literature 4), the present test is done for evaluating the potentiating effect of a drug on GABA(A) receptors based on the electric current raised by GABA. The GABA(A) receptor expressing cells were used in electrophysiological study, wherein the electric current was measured when 2 μM GABA solution and then a mixture of 2 μM GABA and the test compound were added to the cells. […] In addition, the electric current generated by a mixture of 2 μM GABA solution and the test compound with 10 μM flumazenil was measured, and the inhibition rate for the electric current by adding flumazenil was calculated compared to the electric current obtained in the absence of flumazenil.

BALB/c-Scn1a<+/−> mice = assay: Anticonvulsant effect in mouse model of Dravet syndrome with febrile seizures; type: in vivo; settings: oral; for Difference of the threshold temperature of convulsion from that of the control group: at the dose for anticonvulsive effect, hyperthermia 50 minutes after dosing; for Dose for anticonvulsive effect: dose needed to raise the threshold body temperature for inducing febrile seizures significantly compared with the control group
From the text: This is a test for evaluating the anticonvulsant effect for febrile seizures of the test compounds in a mouse model of Dravet syndrome. In this test, BALB/c-Scn1a<+/−> mice were used (catalog number: RBRC06422; they are available from RIKEN BioResource Research Center via the National BioResource Project). The present mouse model having a mutation in a responsible gene for Dravet syndrome, Scn1A, presents with symptoms similar to febrile seizures caused by hyperthermia which is a symptom in a patient suffering from Dravet syndrome, and can be used as an animal model of spontaneous Dravet syndrome (for reference: the Japan Epilepsy Research Foundation, Annual Report 2015: 26: 69-76). To male mice model of Dravet syndrome (one group: 5-8 mice, body weight: 20-30 g) were orally administered the test compound. 50 minutes later, the mice were put in a chamber warmed with hot bath to evoke hyperthermia, and observed about the development of febrile seizures. Immediately after febrile seizure was developed, the rectal temperature was measured and used as the threshold body temperature for inducing febrile seizures.

CC(C)(C(N)=O)c1nc(-c2ccc(F)cc2)no1 [Example 1, 2-[3-(4-Fluorophenyl)-1,2,4-oxadiazol-5-yl]-2-methylpropanamide]
average of the five mice's walking time (Slc: ddy male mice; 100 mg/kg): 180 s | The potentiating effect on GABA(A) receptors EC20 (GABA(A) receptors): 55 µM

CC(C)(C(N)=O)c1nc(-c2ccc(Cl)cc2)no1 [Example 2, 2-[3-(4-chlorophenyl)-1,2,4-oxadiazol-5-yl]-2-methylpropanamide]
average of the five mice's walking time (Slc: ddy male mice; 100 mg/kg): 180 s | Inhibition rate to the increased electric current by adding flumazenil (GABA(A) receptors): <0% | The potentiating effect on GABA(A) receptors EC20 (GABA(A) receptors): 29 µM | Difference of the threshold temperature of convulsion from that of the control group (BALB/c-Scn1a<+/−> mice): 0.6 °C | Dose for anticonvulsive effect (BALB/c-Scn1a<+/−> mice): 50 mg/kg

CC(C)(C(N)=O)c1nc(-c2ccc(Br)cc2)no1 [Example 3, 2-[3-(4-bromophenyl)-1,2,4-oxadiazol-5-yl]-2-methylpropanamide]
average of the five mice's walking time (Slc: ddy male mice; 100 mg/kg): 180 s | Inhibition rate to the increased electric current by adding flumazenil (GABA(A) receptors): <0% | The potentiating effect on GABA(A) receptors EC20 (GABA(A) receptors): 29 µM | Difference of the threshold temperature of convulsion from that of the control group (BALB/c-Scn1a<+/−> mice): 0.7 °C | Dose for anticonvulsive effect (BALB/c-Scn1a<+/−> mice): 100 mg/kg

NC(=O)C1(c2nc(-c3ccc(F)cc3)no2)CC1 [Example 4, 1-[3-(4-fluorophenyl)-1,2,4-oxadiazol-5-yl]cyclopropane-1-carboxamide]
average of the five mice's walking time (Slc: ddy male mice; 100 mg/kg): 180 s | The potentiating effect on GABA(A) receptors EC20 (GABA(A) receptors): >100 µM

NC(=O)C1(c2nc(-c3ccc(Cl)cc3)no2)CC1 [Example 5, 1-[3-(4-chlorophenyl)-1,2,4-oxadiazol-5-yl]cyclopropane-1-carboxamide]
average of the five mice's walking time (Slc: ddy male mice; 100 mg/kg): 180 s | The potentiating effect on GABA(A) receptors EC20 (GABA(A) receptors): >300 µM

NC(=O)C1(c2nc(-c3ccc(Cl)cc3)no2)CC(F)C1 (stereo not drawn) [Example 6, 1-[3-(4-chlorophenyl)-1,2,4-oxadiazol-5-yl]-3-fluorocyclobutane-1-carboxamide]
average of the five mice's walking time (Slc: ddy male mice; 100 mg/kg): 180 s | The potentiating effect on GABA(A) receptors EC20 (GABA(A) receptors): 3.3 µM

NC(=O)C1(c2nc(-c3ccc(Cl)cc3)no2)CC(F)(F)C1 [Example 7, 1-[3-(4-chlorophenyl)-1,2,4-oxadiazol-5-yl]-3,3-difluorocyclobutane-1-carboxamide]
average of the five mice's walking time (Slc: ddy male mice; 100 mg/kg): 180 s | The potentiating effect on GABA(A) receptors EC20 (GABA(A) receptors): 5.4 µM

NC(=O)C1(c2nc(-c3ccc(Cl)cc3)no2)CCC1 [Example 8, 1-[3-(4-chlorophenyl)-1,2,4-oxadiazol-5-yl]cyclobutane-1-carboxamide]
average of the five mice's walking time (Slc: ddy male mice; 100 mg/kg): 180 s | The potentiating effect on GABA(A) receptors EC20 (GABA(A) receptors): 3.2 µM

NC(=O)C1(c2nc(-c3ccc(Cl)cc3)no2)CCCC1 [Example 9, 1-[3-(4-chlorophenyl)-1,2,4-oxadiazol-5-yl]cyclopentane-1-carboxamide]
average of the five mice's walking time (Slc: ddy male mice; 100 mg/kg): 180 s | The potentiating effect on GABA(A) receptors EC20 (GABA(A) receptors): 2.7 µM

NC(=O)C1(c2nc(-c3ccc(F)cc3)no2)CCOCC1 [Example 10, 4-[3-(4-fluorophenyl)-1,2,4-oxadiazol-5-yl]tetrahydro-2H-pyran-4-carboxamide]
average of the five mice's walking time (Slc: ddy male mice; 100 mg/kg): 180 s | The potentiating effect on GABA(A) receptors EC20 (GABA(A) receptors): 247 µM

CC(C)(C(N)=O)c1noc(-c2ccc(F)cc2)n1 [Example 12, 2-[5-(4-fluorophenyl)-1,2,4-oxadiazol-3-yl]-2-methylpropanamide]
average of the five mice's walking time (Slc: ddy male mice; 100 mg/kg): 180 s | The potentiating effect on GABA(A) receptors EC20 (GABA(A) receptors): 234 µM

CC(C)(C(N)=O)c1noc(-c2ccc(Cl)cc2)n1 [Example 13, 2-[5-(4-chlorophenyl)-1,2,4-oxadiazol-3-yl]-2-methylpropanamide]
average of the five mice's walking time (Slc: ddy male mice; 100 mg/kg): 180 s | Inhibition rate to the increased electric current by adding flumazenil (GABA(A) receptors): <0% | The potentiating effect on GABA(A) receptors EC20 (GABA(A) receptors): 71 µM | Difference of the threshold temperature of convulsion from that of the control group (BALB/c-Scn1a<+/−> mice): 0.6 °C | Dose for anticonvulsive effect (BALB/c-Scn1a<+/−> mice): 50 mg/kg

CC(C)(C(N)=O)c1noc(-c2ccc(Br)cc2)n1 [Example 14, 2-[5-(4-bromophenyl)-1,2,4-oxadiazol-3-yl]-2-methylpropanamide]
average of the five mice's walking time (Slc: ddy male mice; 100 mg/kg): 180 s | The potentiating effect on GABA(A) receptors EC20 (GABA(A) receptors): 32 µM

CC(C)(C(N)=O)c1nnc(-c2ccc(Cl)cc2)o1 [Example 15, 2-[5-(4-chlorophenyl)-1,3,4-oxadiazol-2-yl]-2-methylpropanamide]
average of the five mice's walking time (Slc: ddy male mice; 100 mg/kg): 180 s | The potentiating effect on GABA(A) receptors EC20 (GABA(A) receptors): >300 µM

CC(C)(c1nc(-c2ccc(F)cc2)no1)S(N)(=O)=O [Example 17, 2-[3-(4-Fluorophenyl)-1,2,4-oxadiazol-5-yl]propane-2-sulfonamide]
average of the five mice's walking time (Slc: ddy male mice; 100 mg/kg): 180 s | The potentiating effect on GABA(A) receptors EC20 (GABA(A) receptors): 45 µM

CC(C)(c1nc(-c2ccc(Cl)cc2)no1)S(N)(=O)=O [Example 18, 2-[3-(4-chlorophenyl)-1,2,4-oxadiazol-5-yl]propane-2-sulfonamide]
average of the five mice's walking time (Slc: ddy male mice; 100 mg/kg): 180 s | Inhibition rate to the increased electric current by adding flumazenil (GABA(A) receptors): <0% | The potentiating effect on GABA(A) receptors EC20 (GABA(A) receptors): 37 µM

CC(C)(c1nc(-c2ccc(Br)cc2)no1)S(N)(=O)=O [Example 19, 2-[3-(4-bromophenyl)-1,2,4-oxadiazol-5-yl]propane-2-sulfonamide]
average of the five mice's walking time (Slc: ddy male mice; 100 mg/kg): 180 s | The potentiating effect on GABA(A) receptors EC20 (GABA(A) receptors): 34 µM

CC(C)(c1noc(-c2ccc(Br)cc2)n1)S(N)(=O)=O [Example 21, 2-[5-(4-bromophenyl)-1,2,4-oxadiazol-3-yl]propane-2-sulfonamide]
average of the five mice's walking time (Slc: ddy male mice; 100 mg/kg): 180 s | The potentiating effect on GABA(A) receptors EC20 (GABA(A) receptors): 9.6 µM

CC(C)(c1nnc(-c2ccc(F)cc2)o1)S(N)(=O)=O [Example 22, 2-[5-(4-fluorophenyl)-1,3,4-oxadiazol-2-yl]propane-2-sulfonamide]
average of the five mice's walking time (Slc: ddy male mice; 100 mg/kg): 180 s | The potentiating effect on GABA(A) receptors EC20 (GABA(A) receptors): >300 µM

CC(C)(c1nnc(-c2ccc(Cl)cc2)o1)S(N)(=O)=O [Example 23, 2-[5-(4-chlorophenyl)-1,3,4-oxadiazol-2-yl]propane-2-sulfonamide]
average of the five mice's walking time (Slc: ddy male mice; 100 mg/kg): 180 s | The potentiating effect on GABA(A) receptors EC20 (GABA(A) receptors): 190 µM

CC(C)(c1nnc(-c2ccc(Br)cc2)o1)S(N)(=O)=O [Example 24, 2-[5-(4-bromophenyl)-1,3,4-oxadiazol-2-yl]propane-2-sulfonamide]
average of the five mice's walking time (Slc: ddy male mice; 100 mg/kg): 180 s | The potentiating effect on GABA(A) receptors EC20 (GABA(A) receptors): 86 µM

CN1C(=O)CCC1c1nc(-c2ccc(F)cc2F)no1 (stereo not drawn) [Example 26, 5-[3-(2,4-difluorophenyl)-1,2,4-oxadiazol-5-yl]-1-methylpyrrolidin-2-one]
average of the five mice's walking time (Slc: ddy male mice; 50 mg/kg): 180 s | The potentiating effect on GABA(A) receptors EC20 (GABA(A) receptors): >100 µM

CN1C(=O)CCC1c1nc(-c2ccc(F)c(F)c2)no1 (stereo not drawn) [Example 27, 5-[3-(3,4-difluorophenyl)-1,2,4-oxadiazol-5-yl]-1-methylpyrrolidin-2-one]
average of the five mice's walking time (Slc: ddy male mice; 50 mg/kg): 180 s | Inhibition rate to the increased electric current by adding flumazenil (GABA(A) receptors): <0% | The potentiating effect on GABA(A) receptors EC20 (GABA(A) receptors): 39 µM

CN1C(=O)CC(=O)N(c2ccccc2)c2cc(Cl)ccc21 [clobazam, reference compound]
Inhibition rate to the increased electric current by adding flumazenil (GABA(A) receptors): 88% | The potentiating effect on GABA(A) receptors EC20 (GABA(A) receptors): 0.34 µM | inhibition of the potentiating effect on GABA(A) receptors with flumazenil (in words) (GABA(A) receptors; flumazenil, benzodiazepine antagonist): strongly inhibited
